pIC50: −log10 of the molar value.
Test system: PANC-1 complex spheroid growth, percent test/control
Assay: Anticancer human tumor PANC-1 cell line growth inhibition [Asc];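 note: spheroids exposed to agents for 7 days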;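 for viability, T/C: percent viability relative to DMSO vehicle wells taken as 100%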
Conditions: for pIC50: curve of first compound; for viability, T/C: stronger effect = lower value
Summary of the method: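 Concentration series start at each agent's clinical Cmax, or at 10 microM when none is established, and drop in half-log steps; agents are applied alone or together to complex spheroids built with HUVEC and hMSC.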

[1] = second compound 0.00316 µM, first compound 0.0316 µM
[2] = second compound 0.00316 µM, first compound 0.1 µM
[3] = second compound 0.01 µM, first compound 0.0316 µM
[4] = second compound 0.01 µM, first compound 0.1 µM
[5] = second compound 0.0316 µM, first compound 0.0316 µM
[6] = second compound 0.0316 µM, first compound 0.1 µM
[7] = second compound 0.1 µM, first compound 0.0316 µM
[8] = second compound 0.1 µM, first compound 0.1 µM
[9] = second compound 0.316 µM, first compound 0.0316 µM
[10] = second compound 0.316 µM, first compound 0.1 µM
[11] = second compound 1 µM, first compound 0.0316 µM
[12] = second compound 1 µM, first compound 0.1 µM

Compound `Cc1nc(N2CCC3(CC2)COC(C)C3N)c(CO)nc1Sc1ccnc(N)c1Cl` (stereo unspecified) + CCN1C(C(=O)NC23CCC(C(=O)O)(CC2)CC3)C(c2cccc(Cl)c2F)C2(C(=O)Nc3cc(Cl)ccc32)C12CCCCC2 has a pIC50 (second compound 0.00949 µM) of less than 5.52, a pIC50 (second compound 0.03 µM) of less than 5.52 and a pIC50 (second compound 0.0949 µM) of less than 5.52. For the same compound, the pIC50 (second compound 0.3 µM) was less than 5.52, the pIC50 (second compound 0.949 µM) was less than 5.52 and the pIC50 (second compound 3 µM) was less than 5.52. The viability, T/C (second compound 0.00949 µM, first compound 0.00949 µM) was 109%, the viability, T/C (second compound 0.00949 µM, first compound 0.03 µM) was 95.8% and the viability, T/C (second compound 0.00949 µM, first compound 0.0949 µM) was 92.8%. The viability, T/C (second compound 0.00949 µM, first compound 0.3 µM) was 87.7%, the viability, T/C (second compound 0.00949 µM, first compound 0.949 µM) was 92.1% and the viability, T/C (second compound 0.00949 µM, first compound 3 µM) was 92.6%. The viability, T/C (second compound 0.03 µM, first compound 0.00949 µM) was 102%, the viability, T/C (second compound 0.03 µM, first compound 0.03 µM) was 101% and the viability, T/C (second compound 0.03 µM, first compound 0.0949 µM) was 98.7%. For the same compound, the viability, T/C (second compound 0.03 µM, first compound 0.3 µM) was 89.5%, the viability, T/C (second compound 0.03 µM, first compound 0.949 µM) was 90% and the viability, T/C (second compound 0.03 µM, first compound 3 µM) was 94.1%. It also gave a viability, T/C (second compound 0.0949 µM, first compound 0.00949 µM) of 103%, a viability, T/C (second compound 0.0949 µM, first compound 0.03 µM) of 102% and a viability, T/C (second compound 0.0949 µM, first compound 0.0949 µM) of 98.6%. The viability, T/C (second compound 0.0949 µM, first compound 0.3 µM) was 92%, the viability, T/C (second compound 0.0949 µM, first compound 0.949 µM) was 93.7% and the viability, T/C (second compound 0.0949 µM, first compound 3 µM) was 91.3%. It also gave a viability, T/C (second compound 0.3 µM, first compound 0.00949 µM) of 98.7%, a viability, T/C (second compound 0.3 µM, first compound 0.03 µM) of 98.1% and a viability, T/C (second compound 0.3 µM, first compound 0.0949 µM) of 94.5%. For the same compound, the viability, T/C (second compound 0.3 µM, first compound 0.3 µM) was 96.7%, the viability, T/C (second compound 0.3 µM, first compound 0.949 µM) was 106% and the viability, T/C (second compound 0.3 µM, first compound 3 µM) was 99.2%. It also gave a viability, T/C (second compound 0.949 µM, first compound 0.00949 µM) of 113%, a viability, T/C (second compound 0.949 µM, first compound 0.03 µM) of 91.9% and a viability, T/C (second compound 0.949 µM, first compound 0.0949 µM) of 108%. For the same compound, the viability, T/C (second compound 0.949 µM, first compound 0.3 µM) was 101%, the viability, T/C (second compound 0.949 µM, first compound 0.949 µM) was 108% and the viability, T/C (second compound 0.949 µM, first compound 3 µM) was 92.9%. For the same compound, the viability, T/C (second compound 3 µM, first compound 0.00949 µM) was 115%, the viability, T/C (second compound 3 µM, first compound 0.03 µM) was 116% and the viability, T/C (second compound 3 µM, first compound 0.0949 µM) was 103%. It also gave a viability, T/C (second compound 3 µM, first compound 0.3 µM) of 108%, a viability, T/C (second compound 3 µM, first compound 0.949 µM) of 110% and a viability, T/C (second compound 3 µM, first compound 3 µM) of 103%.
`Cn1ncnc1[C@H]1c2n[nH]c(=O)c3cc(F)cc(c23)N[C@@H]1c1ccc(F)cc1` + CNC(C)C(=O)NC1CN(S(=O)(=O)c2cccc(S(=O)(=O)N3CCC4CCC(C(=O)NC(c5ccccc5)c5ccccc5)N4C(=O)C(NC(=O)C(C)NC)C3)c2)CCC2CCC(C(=O)NC(c3ccccc3)c3ccccc3)N2C1=O gave a pIC50 (second compound 0.00316 µM) of less than 7.00, a pIC50 (second compound 0.01 µM) of less than 7.00 and a pIC50 (second compound 0.0316 µM) of less than 7.00. The pIC50 (second compound 0.1 µM) was less than 7.00, the pIC50 (second compound 0.316 µM) was less than 7.00 and the pIC50 (second compound 1 µM) was less than 7.00. For the same compound, the viability, T/C (second compound 0.00316 µM, first compound 0.000316 µM) was 110%, the viability, T/C (second compound 0.00316 µM, first compound 0.001 µM) was 117% and the viability, T/C (second compound 0.00316 µM, first compound 0.00316 µM) was 128%. The viability, T/C (second compound 0.00316 µM, first compound 0.01 µM) was 114%, the viability, T/C [1] was 113% and the viability, T/C [2] was 109%. For the same compound, the viability, T/C (second compound 0.01 µM, first compound 0.000316 µM) was 105%, the viability, T/C (second compound 0.01 µM, first compound 0.001 µM) was 108% and the viability, T/C (second compound 0.01 µM, first compound 0.00316 µM) was 99.6%. For the same compound, the viability, T/C (second compound 0.01 µM, first compound 0.01 µM) was 117%, the viability, T/C [3] was 110% and the viability, T/C [4] was 111%. The viability, T/C (second compound 0.0316 µM, first compound 0.000316 µM) was 96.8%, the viability, T/C (second compound 0.0316 µM, first compound 0.001 µM) was 92.8% and the viability, T/C (second compound 0.0316 µM, first compound 0.00316 µM) was 96.6%. For the same compound, the viability, T/C (second compound 0.0316 µM, first compound 0.01 µM) was 109%, the viability, T/C [5] was 108% and the viability, T/C [6] was 113%. It also gave a viability, T/C (second compound 0.1 µM, first compound 0.000316 µM) of 94.3%, a viability, T/C (second compound 0.1 µM, first compound 0.001 µM) of 102% and a viability, T/C (second compound 0.1 µM, first compound 0.00316 µM) of 97.3%. The viability, T/C (second compound 0.1 µM, first compound 0.01 µM) was 101%, the viability, T/C [7] was 109% and the viability, T/C [8] was 115%. For the same compound, the viability, T/C (second compound 0.316 µM, first compound 0.000316 µM) was 109%, the viability, T/C (second compound 0.316 µM, first compound 0.001 µM) was 98.4% and the viability, T/C (second compound 0.316 µM, first compound 0.00316 µM) was 97.5%. The viability, T/C (second compound 0.316 µM, first compound 0.01 µM) was 99.6%, the viability, T/C [9] was 111% and the viability, T/C [10] was 102%. For the same compound, the viability, T/C (second compound 1 µM, first compound 0.000316 µM) was 87.3%, the viability, T/C (second compound 1 µM, first compound 0.001 µM) was 107% and the viability, T/C (second compound 1 µM, first compound 0.00316 µM) was 111%. The viability, T/C (second compound 1 µM, first compound 0.01 µM) was 99%, the viability, T/C [11] was 95.5% and the viability, T/C [12] was 102%.
For `O=C(c1cc(Cc2n[nH]c(=O)c3ccccc23)ccc1F)N1CCN(C(=O)C2CC2)CC1` + CNC(C)C(=O)NC1CN(S(=O)(=O)c2cccc(S(=O)(=O)N3CCC4CCC(C(=O)NC(c5ccccc5)c5ccccc5)N4C(=O)C(NC(=O)C(C)NC)C3)c2)CCC2CCC(C(=O)NC(c3ccccc3)c3ccccc3)N2C1=O, the pIC50 (second compound 0.00316 µM) was less than 5.00, the pIC50 (second compound 0.01 µM) was less than 5.00 and the pIC50 (second compound 0.0316 µM) was less than 5.00. It also gave a pIC50 (second compound 0.1 µM) of less than 5.00, a pIC50 (second compound 0.316 µM) of less than 5.00 and a pIC50 (second compound 1 µM) of less than 5.00. For the same compound, the viability, T/C [1] was 132%, the viability, T/C [2] was 111% and the viability, T/C (second compound 0.00316 µM, first compound 0.316 µM) was 134%. It also gave a viability, T/C (second compound 0.00316 µM, first compound 1 µM) of 133%, a viability, T/C (second compound 0.00316 µM, first compound 3.16 µM) of 97.3% and a viability, T/C (second compound 0.00316 µM, first compound 10 µM) of 63.4%. It also gave a viability, T/C [3] of 109%, a viability, T/C [4] of 100% and a viability, T/C (second compound 0.01 µM, first compound 0.316 µM) of 105%. It also gave a viability, T/C (second compound 0.01 µM, first compound 1 µM) of 104%, a viability, T/C (second compound 0.01 µM, first compound 3.16 µM) of 103% and a viability, T/C (second compound 0.01 µM, first compound 10 µM) of 98.4%. The viability, T/C [5] was 107%, the viability, T/C [6] was 96.2% and the viability, T/C (second compound 0.0316 µM, first compound 0.316 µM) was 96.7%. It also gave a viability, T/C (second compound 0.0316 µM, first compound 1 µM) of 110%, a viability, T/C (second compound 0.0316 µM, first compound 3.16 µM) of 112% and a viability, T/C (second compound 0.0316 µM, first compound 10 µM) of 91.2%. It also gave a viability, T/C [7] of 91.2%, a viability, T/C [8] of 100% and a viability, T/C (second compound 0.1 µM, first compound 0.316 µM) of 92.3%. For the same compound, the viability, T/C (second compound 0.1 µM, first compound 1 µM) was 99.1%, the viability, T/C (second compound 0.1 µM, first compound 3.16 µM) was 101% and the viability, T/C (second compound 0.1 µM, first compound 10 µM) was 81.8%. For the same compound, the viability, T/C [9] was 103%, the viability, T/C [10] was 103% and the viability, T/C (second compound 0.316 µM, first compound 0.316 µM) was 89.2%. For the same compound, the viability, T/C (second compound 0.316 µM, first compound 1 µM) was 95.4%, the viability, T/C (second compound 0.316 µM, first compound 3.16 µM) was 99.2% and the viability, T/C (second compound 0.316 µM, first compound 10 µM) was 93.3%. For the same compound, the viability, T/C [11] was 93.7%, the viability, T/C [12] was 106% and the viability, T/C (second compound 1 µM, first compound 0.316 µM) was 87.8%. It also gave a viability, T/C (second compound 1 µM, first compound 1 µM) of 93.2%, a viability, T/C (second compound 1 µM, first compound 3.16 µM) of 89.9% and a viability, T/C (second compound 1 µM, first compound 10 µM) of 85.2%.
